The MIC is the lowest concentration that inhibits growth of the organism. The MBC is the smallest concentration meeting the test's criterion for killing.

SMILES strings stand for the structures. Values after ≈ are worked out from the molar mass of the structure shown. Active and inactive are the calls of the source. Some results are limits rather than exact numbers.

The values that follow come from ChEMBL document CHEMBL6078713, “Synthesis and mechanistic studies of 4-aminoquinoline-Isatin molecular hybrids and Schiff's bases as promising antimicrobial agents” (Eur J Med Chem, 2025).

Test [1] relates to Escherichia coli. The test is described as follows: Antibacterial activity against Escherichia coli MTCC 443 assessed as diameter of zone of inhibition at 500 ug/ml by agar disk diffusion method. Type of test: functional. The note with it: read-out: DIZ. (In agar diffusion tests the substance spreads into inoculated agar from a disc or well.)
Test [2] concerns Bacillus subtilis. The test is described as follows: Antibacterial activity against Bacillus subtilis MTCC 736 assessed as diameter of zone of inhibition at 500 ug/ml by agar disk diffusion method. Particulars: read-out: DIZ. Type of test: functional.
Test [3] has as its system Staphylococcus aureus. The experiment in a line: Antibacterial activity against Staphylococcus aureus MTCC 902 assessed as diameter of zone of inhibition at 500 ug/ml by agar disk diffusion method. The note with it: read-out: DIZ. Type of test: functional.
For test [4], the system named is Pseudomonas aeruginosa. The test is described as follows: Antibacterial activity against Pseudomonas aeruginosa MTCC 2453 assessed as diameter of zone of inhibition at 500 ug/ml by agar disk diffusion method. Type of test: functional. The note with it: read-out: DIZ.
In test [5] the test system is Escherichia coli. The test is described as follows: Antibacterial activity against Escherichia coli MTCC 443 assessed as inhibition of bacterial growth incubated overnight by serial dilution based spectrophotometer. It counts as functional.
Test [6] concerns Enterococcus faecalis. The test is described as follows: Antibacterial activity against Enterococcus faecalis MTCC 439 assessed as inhibition of bacterial growth incubated overnight by serial dilution based spectrophotometer. It counts as functional.
Test [7] has as its system Bacillus subtilis. The test is described as follows: Antibacterial activity against Bacillus subtilis MTCC 736 assessed as inhibition of bacterial growth incubated overnight by serial dilution based spectrophotometer. It counts as functional.
In test [8] the test system is Staphylococcus aureus. The test is described as follows: Antibacterial activity against Staphylococcus aureus MTCC 902 assessed as inhibition of bacterial growth incubated overnight by serial dilution based spectrophotometer. Type of test: functional.
Test [9] deals with Pseudomonas aeruginosa. The test is described as follows: Antibacterial activity against Pseudomonas aeruginosa MTCC 2453 assessed as inhibition of bacterial growth incubated overnight by serial dilution based spectrophotometer. Type of test: functional.
Test [10] relates to Salmonella typhi. The test is described as follows: Antibacterial activity against Salmonella typhi assessed as inhibition of bacterial growth incubated overnight by serial dilution based spectrophotometer. The note with it: Salmonella enterica. Type of test: functional, Salmonella enterica subsp. enterica serovar Typhi.
For test [11], the system named is Escherichia coli. The test is described as follows: Bactericidal activity against Escherichia coli MTCC 443 assessed as inhibition of bacterial growth incubated overnight. It counts as functional.
In test [12] the test system is Bacillus subtilis. The test is described as follows: Bactericidal activity against Bacillus subtilis MTCC 736 assessed as inhibition of bacterial growth incubated overnight. Type of test: functional.
Test [13] relates to Pseudomonas aeruginosa. The experiment in a line: Bactericidal activity against Pseudomonas aeruginosa MTCC 2453 assessed as inhibition of bacterial growth incubated overnight. It counts as functional.
In test [14] the test system is Bacillus subtilis. The test is described as follows: Ratio of MBC for antibacterial activity against Bacillus subtilis MTCC 736 to MIC for bactericidal activity against Bacillus subtilis MTCC 736. It counts as functional.
Test [15] relates to Pseudomonas aeruginosa. The experiment in a line: Ratio of MBC for antibacterial activity against Pseudomonas aeruginosa MTCC 2453 to MIC for bactericidal activity against Pseudomonas aeruginosa MTCC 2453. Type of test: functional.
The test system of test [16] is Escherichia coli. The test is described as follows: Antibacterial activity against Escherichia coli MTCC 443 assessed as diameter of zone of inhibition at 0.5 times MIC incubated overnight by disk diffusion method. Type of test: functional.
Test [17] concerns Enterococcus faecalis. The test is described as follows: Antibacterial activity against Enterococcus faecalis MTCC 439 assessed as diameter of zone of inhibition at 0.5 times MIC incubated overnight by disk diffusion method. Type of test: functional.
Test [18] deals with Bacillus subtilis. The test is described as follows: Antibacterial activity against Bacillus subtilis MTCC 736 assessed as diameter of zone of inhibition at 0.5 times MIC incubated overnight by disk diffusion method. Type of test: functional.
Test [19] concerns Staphylococcus aureus. The test is described as follows: Antibacterial activity against Staphylococcus aureus MTCC 902 assessed as diameter of zone of inhibition at 0.5 times MIC incubated overnight by disk diffusion method. Type of test: functional.
Test [20] has as its system Pseudomonas aeruginosa. The experiment in a line: Antibacterial activity against Pseudomonas aeruginosa MTCC 2453 assessed as diameter of zone of inhibition at 0.5 times MIC incubated overnight by disk diffusion method. It counts as functional.
Test [21] relates to Escherichia coli. The experiment in a line: Antibacterial activity against Escherichia coli MTCC 443 assessed as diameter of zone of inhibition at MIC incubated overnight by disk diffusion method. Type of test: functional.
The subject of test [22] is Enterococcus faecalis. The experiment in a line: Antibacterial activity against Enterococcus faecalis MTCC 439 assessed as diameter of zone of inhibition at MIC incubated overnight by disk diffusion method. It counts as functional.
For test [23], the system named is Bacillus subtilis. The test is described as follows: Antibacterial activity against Bacillus subtilis MTCC 736 assessed as diameter of zone of inhibition at MIC incubated overnight by disk diffusion method. It counts as functional.
Test [24] has as its system Staphylococcus aureus. The experiment in a line: Antibacterial activity against Staphylococcus aureus MTCC 902 assessed as diameter of zone of inhibition at MIC incubated overnight by disk diffusion method. It counts as functional.
Test [25] deals with Pseudomonas aeruginosa. The test is described as follows: Antibacterial activity against Pseudomonas aeruginosa MTCC 2453 assessed as diameter of zone of inhibition at MIC incubated overnight by disk diffusion method. It counts as functional.
For test [26], the system named is Salmonella typhi. The experiment in a line: Antibacterial activity against Salmonella typhi assessed as diameter of zone of inhibition at MIC incubated overnight by disk diffusion method. Type of test: functional, Salmonella enterica subsp. enterica serovar Typhi.
Test [27] deals with Escherichia coli. The test is described as follows: Antibacterial activity against Escherichia coli MTCC 443 assessed as diameter of zone of inhibition at 2 times MIC incubated overnight by disk diffusion method. It counts as functional.
For test [28], the system named is Enterococcus faecalis. The test is described as follows: Antibacterial activity against Enterococcus faecalis MTCC 439 assessed as diameter of zone of inhibition at 2 times MIC incubated overnight by disk diffusion method. It counts as functional.
Test [29] concerns Bacillus subtilis. The test is described as follows: Antibacterial activity against Bacillus subtilis MTCC 736 assessed as diameter of zone of inhibition at 2 times MIC incubated overnight by disk diffusion method. It counts as functional.
The test system of test [30] is Staphylococcus aureus. The experiment in a line: Antibacterial activity against Staphylococcus aureus MTCC 902 assessed as diameter of zone of inhibition at 2 times MIC incubated overnight by disk diffusion method. It counts as functional.
In test [31] the test system is Pseudomonas aeruginosa. The test is described as follows: Antibacterial activity against Pseudomonas aeruginosa MTCC 2453 assessed as diameter of zone of inhibition at 2 times MIC incubated overnight by disk diffusion method. Type of test: functional.
Test [32] concerns Salmonella typhi. The test is described as follows: Antibacterial activity against Salmonella typhi assessed as diameter of zone of inhibition at 2 times MIC incubated overnight by disk diffusion method. It counts as functional, Salmonella enterica subsp. enterica serovar Typhi.
Test [33] relates to Escherichia coli. The experiment in a line: Synergistic antibacterial activity against Escherichia coli MTCC 443 assessed as inhibition of bacterial growth incubated overnight in presence of ciprofloxacin by serial dilution based spectrophotometer. Type of test: functional.
Test [34] deals with Bacillus subtilis. The test is described as follows: Synergistic antibacterial activity against Bacillus subtilis MTCC 736 assessed as inhibition of bacterial growth incubated overnight in presence of ciprofloxacin by serial dilution based spectrophotometer. Type of test: functional.
Test [35] concerns Pseudomonas aeruginosa. The experiment in a line: Synergistic antibacterial activity against Pseudomonas aeruginosa MTCC 2453 assessed as inhibition of bacterial growth incubated overnight in presence of ciprofloxacin by serial dilution based spectrophotometer. Type of test: functional.
The subject of test [36] is Escherichia coli. The experiment in a line: Synergistic antibacterial activity against Escherichia coli MTCC 443 assessed as fractional inhibitory concentration index incubated overnight in presence of ciprofloxacin by microdilution checkerboard assay. It counts as functional. In general terms: In broth dilution the organism is exposed to a series of concentrations in liquid medium.

Test [37] relates to Bacillus subtilis. The experiment in a line: Synergistic antibacterial activity against Bacillus subtilis MTCC 736 assessed as fractional inhibitory concentration index incubated overnight in presence of ciprofloxacin by microdilution checkerboard assay. It counts as functional.
For test [38], the system named is Pseudomonas aeruginosa. The experiment in a line: Synergistic antibacterial activity against Pseudomonas aeruginosa MTCC 2453 assessed as fractional inhibitory concentration index incubated overnight in presence of ciprofloxacin by microdilution checkerboard assay. Type of test: functional.
Test [39] relates to Escherichia coli. The test is described as follows: Bacteriostatic activity against Escherichia coli MTCC 443 assessed as reduction in bacterial growth at 2 times MIC measured upto 10 hrs by absorbance based assay. Type of test: functional, organism-based.
The subject of test [40] is Staphylococcus aureus. The experiment in a line: Bacteriostatic activity against Staphylococcus aureus MTCC 902 assessed as reduction in bacterial growth at 2 times MIC measured upto 10 hrs by absorbance based assay. It counts as functional, organism-based.
The subject of test [41] is Escherichia coli. The experiment in a line: Bacteriostatic activity against Escherichia coli MTCC 443 assessed as reduction in log phase of bacterial growth at 0.5 to 1 times MIC measured upto 24 hrs by absorbance based assay. It counts as functional, organism-based.
Test [42] has as its system Staphylococcus aureus. The test is described as follows: Bacteriostatic activity against Staphylococcus aureus MTCC 902 assessed as lag phase of bacterial growth at 1 times MIC measured upto 24 hrs by absorbance based assay. Type of test: functional, organism-based.
The subject of test [43] is Staphylococcus aureus. The experiment in a line: Bacteriostatic activity against Staphylococcus aureus MTCC 902 assessed as lag phase of bacterial growth at 0.5 times MIC measured upto 24 hrs by absorbance based assay. Type of test: functional, organism-based.
The subject of test [44] is Enterococcus faecalis. The test is described as follows: Antibacterial activity against Enterococcus faecalis assessed as inhibition of bacterial growth. Type of test: functional.

For the compound `O=C1Nc2cc(Cl)ccc2/C1=N/CCNc1ccnc2cc(Cl)ccc12`, the zone of inhibition at 500 µg/mL in the test with Escherichia coli [1] worked out at 12 mm; in the test on Bacillus subtilis [2], 11 mm; with Staphylococcus aureus [3], 8 mm; in the test with Pseudomonas aeruginosa [4] it was 11 mm. The MIC in the test with Escherichia coli [5] is 256 µg/mL (≈ 664 µM); with Enterococcus faecalis [6] it was greater than 512 µg/mL; in the test with Bacillus subtilis [7] it was 256 µg/mL (≈ 664 µM); in the test with Staphylococcus aureus [8] it was greater than 512 µg/mL; in the test on Pseudomonas aeruginosa [9], 128 µg/mL (≈ 332 µM); with Salmonella typhi [10], greater than 512 µg/mL. Also, the MIC in the test on Escherichia coli [33] was 16 µg/mL; in the test with Bacillus subtilis [34], 64 µg/mL; with Pseudomonas aeruginosa [35], 32 µg/mL. Besides, the MBC is greater than 512 µg/mL in the test on Escherichia coli [11], 256 µg/mL (≈ 664 µM) in the test on Bacillus subtilis [12] and 256 µg/mL (≈ 664 µM) in the test with Pseudomonas aeruginosa [13]. The values for the Ratio with Bacillus subtilis [14] and with Pseudomonas aeruginosa [15] were 1 and 2, respectively. Further, the “diameter of the inhibition zone (DIZ)” value is listed as 9 mm in the test on Escherichia coli [16]; 8 mm in the test with Enterococcus faecalis [17]; 8 mm in the test with Bacillus subtilis [18]; 8 mm with Staphylococcus aureus [19]; 8 mm in the test with Pseudomonas aeruginosa [20]; 9 mm in the test with Escherichia coli [21]. Further, the “diameter of the inhibition zone (DIZ)” value was 8 mm with Enterococcus faecalis [22]; 11 mm in the test on Bacillus subtilis [23]; 8 mm in the test with Staphylococcus aureus [24]; 9 mm in the test on Pseudomonas aeruginosa [25]; 7 mm in the test with Salmonella typhi [26]; 11 mm in the test with Escherichia coli [27]. Further, the “diameter of the inhibition zone (DIZ)” value in the test with Enterococcus faecalis [28] is on record as 8 mm; in the test on Bacillus subtilis [29] it was 10 mm; in the test with Staphylococcus aureus [30], 8 mm; in the test on Pseudomonas aeruginosa [31], 9 mm; with Salmonella typhi [32], 7 mm. For the same compound, the “fractional inhibitory concentration index (FICI)” value in the test with Escherichia coli [36] is 0.125; in the test with Bacillus subtilis [37], 0.75; in the test with Pseudomonas aeruginosa [38], 1.25. For the same compound, the outcome in the test with Escherichia coli [39], with Staphylococcus aureus [40], in the test with Escherichia coli [41] and in the test on Staphylococcus aureus [42] was Active. For the same compound, the outcome in the test on Staphylococcus aureus [43] was inactive.

With `O=C1Nc2cc(Cl)c(F)cc2/C1=N\NC(=O)c1cc(-c2cccc(Br)c2)n[nH]1`, the MIC in the test on Enterococcus faecalis [44] was 8 µg/mL (≈ 17.3 µM).
